How the values were obtained:
HPPD SEQ ID NO:20 = HPPD SEQ ID NO:20 (Avena sativa, UniProt A0ACD5V6K6, DEL109-109/I285S); experiment: biochemical; type: binding
Method: (§1) On rates (governed by an association rate constant, kon) for the formation of the enzyme: inhibitor complexes, EI and off rates (governed by a dissociation rate constant, koff) were determined by methods known in the art and essentially as described in Hawkes et al. (2001) Proc. Bright. Crop. Prot. Conf. Weeds, 2:563-568 and in PCT Patent App. Pub. No. WO 02/46387).
(§2) For example, on rates were measured by, at zero time, adding ˜60 pmoles HPPD to 50 mM BisTrisPropane buffer at pH7.0 and at 25° C. containing 25 mM Na ascorbate, 4 μg/ml bovine catalase (Sigma, St. Louis, Mo.) and an excess (˜300 pmoles) of ^14C inhibitor in a total assay volume of 425 μl and, at various time points (0-180 s), quenching the radiolabel binding reaction by addition and rapid mixing of 100 μl ‘cold’ 1 mM structure A. Protein samples quenched at different times were then exchanged into 50 mM BisTrisPropane buffer at pH 7.0 containing 0.1M KCl by rapid chromatography down a NAP5 G25 Sephadex column (GE Healthcare Ltd, Buckinghamshire UK) and the amount of ^14C bound to protein fractions quantified in Optiphase scintillant using a Tri-Carb 2900TR scintillation counter (Perkin Elmer, Wellesley, Mass.). The data were fit according to the scheme below in order to derive the value of the apparent second order rate constant, k2, governing the association rate of enzyme and radiolabelled inhibitor. A range of enzyme and inhibitor concentrations were used. […] Further example methods are described in PCT Patent App. Pub. No. WO 02/46387.
(§3) Off rates (k1 in the scheme below) were derived from exchange rate studies where either the test inhibitor, I, or its exchange partner, J were radiolabelled and the data fit according to the scheme below. As noted in Hawkes et al. (2001) Proc. Bright. Crop. Prot. Conf.
(§4) After 30 minutes the exchange reaction was initiated with addition of 100 μl 1 mM ‘cold’ structure A with thorough mixing, and, immediately, 150 μl were withdrawn and loaded onto a NAP5 column, the protein exchanged into 50 mM BisTrisPropane buffer at pH 7.0 containing 0.1M KCl by rapid (<2 min) chromatography down a NAP5 G25 Sephadex column (GE Healthcare Ltd, Buckinghamshire UK) and the amount of ^14C bound to protein measured by Optiphase scintillant using a Tri-Carb 2900TR scintillation counter (Perkin Elmer, Wellesley, Mass.). Further aliquots were removed and measured in the same way at various times over minutes or hours as required in order to determine the exchange kinetics.
(§5) After 30 minutes the reaction vessel was transferred to ice. After a further 10 minutes at ice temperature the exchange reaction was initiated by addition of 100 μl 1 mM Structure A, with thorough mixing, and 150 μl was withdrawn and loaded onto a NAP5 column in a cold room at ˜5-8° C. in order to quantify the amount of radiolabel remaining bound to the protein at various time from the start of exchange at ice temperature.
(§6) Off rates (k1) of HPPD inhibitors that are not available radiolabelled or that present other measurement problems (for example high levels of background non-specific protein-binding which can be measured as radiolabel binding that persists in the presence of high concentrations of ‘cold’ inhibitor) may be measured indirectly. […] Exemplary methods are also described in PCT Patent App. Pub. No. WO 02/46387.

HPPD SEQ ID NO:24 = HPPD SEQ ID NO:24 (Avena sativa, UniProt A0ACD5V6K6, DEL109-109/L359M); experiment: biochemical; type: binding
HPPD SEQ ID NO:24, sequence (A0ACD5V6K6 entry or part of it DEL109-109/L359M): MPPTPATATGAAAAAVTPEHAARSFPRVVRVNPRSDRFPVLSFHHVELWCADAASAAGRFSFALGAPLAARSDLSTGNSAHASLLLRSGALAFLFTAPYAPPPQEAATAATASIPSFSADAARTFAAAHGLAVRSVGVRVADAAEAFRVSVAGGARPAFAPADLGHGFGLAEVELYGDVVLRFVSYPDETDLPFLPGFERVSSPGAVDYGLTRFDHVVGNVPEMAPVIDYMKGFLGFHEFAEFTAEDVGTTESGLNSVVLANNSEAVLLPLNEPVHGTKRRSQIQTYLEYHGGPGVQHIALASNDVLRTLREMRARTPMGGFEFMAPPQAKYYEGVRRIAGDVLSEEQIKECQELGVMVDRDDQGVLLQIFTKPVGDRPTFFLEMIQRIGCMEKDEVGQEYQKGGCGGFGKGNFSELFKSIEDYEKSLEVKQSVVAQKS
Method: as §1, §2, §3, §4, §5, §6

HPPD SEQ ID NO:19 = HPPD SEQ ID NO:19 (Avena sativa, UniProt A0ACD5V6K6, DEL109-109/I285A); experiment: biochemical; type: binding
HPPD SEQ ID NO:19, sequence (A0ACD5V6K6 entry or part of it DEL109-109/I285A): as the sequence (A0ACD5V6K6 entry or part of it DEL109-109/L359M) above, with I284A, M358L counted along it
Method: as §1, §2, §3, §4, §5, §6

HPPD SEQ ID NO:16 = HPPD SEQ ID NO:16 (Avena sativa, UniProt A0ACD5V6K6, DEL109-109/Q298G); experiment: biochemical; type: binding
HPPD SEQ ID NO:16, sequence (A0ACD5V6K6 entry or part of it DEL109-109/Q298G): as the sequence (A0ACD5V6K6 entry or part of it DEL109-109/L359M) above, with Q297G, M358L counted along it
Method: as §1, §2, §3, §4, §5, §6

[1] = tested on: soybean event S8 (vector 17147) expressing SEQ ID NO:24; experiment: herbicide spray test on soybean events; type: in vivo; details: C 400 g/ha; event S8/SEQ#24; V2 growth stage; 14 DAT; average of n=7
From the text: (§7) Each data point represents the average damage score from n=7 replicates.
(§8) These events were used to compare the performance of five 17147 events. Four of these, SF, S8, S7 and S3 had not been preselected for tolerance level (other than to confirm resistance, non-chimerical nature and the presence of the gene) while the remaining event, T0, had been preselected as the most resistant out of five 17147 events in a preliminary field test.
(§9) Plants were in 4×4×4 inch plastic pots and grown under a 15/9 hour light regime (daylight supplemented by artificial light in greenhouses) at a minimum night-time temperature of 18° C. and maximum daytime temperature of 27° C. Soil was regular VBRC mix (1:1 mixture of Vero field soil and Fafard Mix II) where Vero field soil is 98% sand and 2% clay. […] Spray volume was 150 L/ha and the damage scores reflect assessments at 14 DAT.

[2] = tested on: soybean event 2 (vector 15764) expressing SEQ ID NO:14; experiment: herbicide spray test on soybean events; type: in vivo; details: C 400 g/ha; event 2/SEQ#14; V2 growth stage; 14 DAT; average of n=7
From the text: as §7, §8, §9

[3] = tested on: soybean event 1 (vector 15764) expressing SEQ ID NO:14; experiment: herbicide spray test on soybean events; type: in vivo; details: C 400 g/ha; event 1/SEQ#14; V2 growth stage; 14 DAT; average of n=7
From the text: as §7, §8, §9

[4] = tested on: soybean event S3 (vector 17147) expressing SEQ ID NO:24; experiment: herbicide spray test on soybean events; type: in vivo; details: C 400 g/ha; event S3/SEQ#24; V2 growth stage; 14 DAT; average of n=7
From the text: as §7, §8, §9

[5] = tested on: soybean event SF (vector 17147) expressing SEQ ID NO:24; experiment: herbicide spray test on soybean events; type: in vivo; details: C 400 g/ha; event SF/SEQ#24; V2 growth stage; 14 DAT; average of n=7
From the text: as §7, §8, §9

[6] = tested on: soybean event T0 (vector 17147) expressing SEQ ID NO:24; experiment: herbicide spray test on soybean events; type: in vivo; details: C 400 g/ha; event T0/SEQ#24; V2 growth stage; 14 DAT; average of n=7
From the text: as §7, §8, §9

[7] = tested on: soybean event S7 (vector 17147) expressing SEQ ID NO:24; experiment: herbicide spray test on soybean events; type: in vivo; details: C 400 g/ha; event S7/SEQ#24; V2 growth stage; 14 DAT; average of n=7
From the text: as §7, §8, §9

HPPD SEQ ID NO:20, sequence (A0ACD5V6K6 entry or part of it DEL109-109/I285S): as the sequence (A0ACD5V6K6 entry or part of it DEL109-109/L359M) above, with I284S, M358L counted along it

COCCOCc1nc(C(F)(F)F)ccc1C(=O)C1C(=O)C2CCC(C2)C1=O (centres unmarked) [Structure C]
Kd (HPPD SEQ ID NO:20): 6.6 nM | koff (HPPD SEQ ID NO:20; read-out: koff (k1)): 6.6e-05 s⁻¹ | kon (HPPD SEQ ID NO:20; read-out: kon (k2)): 10100 M⁻¹ s⁻¹ | Kd (HPPD SEQ ID NO:24): 16 nM | SEQ ID NO:24 superior to SEQ ID NO:14 (in vitro, in particular off rate data) (HPPD SEQ ID NO:24): neutral | koff (HPPD SEQ ID NO:24; read-out: koff (k1)): 7.82e-05 s⁻¹ | kon (HPPD SEQ ID NO:24; read-out: kon (k2)): 4900 M⁻¹ s⁻¹ | Kd (HPPD SEQ ID NO:19): 8.9 nM | koff (HPPD SEQ ID NO:19; read-out: koff (k1)): 6.6e-05 s⁻¹ | kon (HPPD SEQ ID NO:19; read-out: kon (k2)): 7500 M⁻¹ s⁻¹ | Kd (HPPD SEQ ID NO:16): 26.7 nM | koff (HPPD SEQ ID NO:16; read-out: koff (k1)): 0.00012 s⁻¹ | kon (HPPD SEQ ID NO:16; read-out: kon (k2)): 4500 M⁻¹ s⁻¹ | % dam. [1]: 68.6% | % dam. [2]: 52.9% | % dam. [3]: 42.1% | % dam. [4]: 62.1% | % dam. [5]: 98.6% | % dam. [6]: 45% | % dam. [7]: 45%
